These results are taken from US8703783B2, “Purinone derivatives as HM74A agonists” (Incyte Corporation, priority 2006, dated 2014).

In one experiment the test system is mature adipocytes. Put plainly: Adipocyte lipolysis assay. It counts as cell-based. The conditions noted are these: glycerol in supernatant after overnight culture with IBMX (100 μM), relative to DMSO controls. The protocol: Preadipocytes purchased from Zen Bio were plated at 8.7×10 ^4 cells/well in 96-well plates, differentiated for 14 days and mature adipocytes assayed during days 15 through 21. Adipocyte maturation is assessed by the presence of rounded cells with large lipid droplets in the cytoplasm. Following maturation, cells were washed and incubated overnight with IBMX (100 μM) and various concentrations of compound diluted in assay buffer containing a final DMSO concentration of 0.1%. After overnight culture, the glycerol concentration in the supernatants was determined with the Lipolysis Assay Kit purchased from Zen-Bio. Absorbance at 540 nm is directly proportional to the glycerol concentration in the sample. IC50 determinations were based on compound inhibition relative to DMSO controls.

For experiment [1] the following is noted: cited from earlier work.
In experiment [2] the target is T1, human HM74a (Homo sapiens, UniProt Q8TDS4). Description: cAMP assay. It counts as cell-based. Further details: expressed in transfected cells. The conditions noted are these: CHO cells stably transfected with human HM74a; 5 μM forskolin; inhibition relative to DMSO controls. The protocol: CHO cells stably transfected with human HM74a were seeded at 7,500 cells/well in a 96-well plate in HAMS F12 medium with 10% FBS. The plate was incubated overnight at 37° C. and 5% CO2. The test compounds were prepared in a stimulation buffer containing 1×HANKS, 20 mM HEPES, 5 μM forskolin, and 0.25 mM IBMX. The media from the cell plate was removed before adding 30 μL of the test compounds. After 30 minute incubation at 37° C. and 5% CO2, the cAMP level was assayed using HitHunter cAMP XS assay kit (DiscoverX, CA). IC50 determinations were based on compound inhibition relative to DMSO controls.
T1 sequence (Q8TDS4 whole entry): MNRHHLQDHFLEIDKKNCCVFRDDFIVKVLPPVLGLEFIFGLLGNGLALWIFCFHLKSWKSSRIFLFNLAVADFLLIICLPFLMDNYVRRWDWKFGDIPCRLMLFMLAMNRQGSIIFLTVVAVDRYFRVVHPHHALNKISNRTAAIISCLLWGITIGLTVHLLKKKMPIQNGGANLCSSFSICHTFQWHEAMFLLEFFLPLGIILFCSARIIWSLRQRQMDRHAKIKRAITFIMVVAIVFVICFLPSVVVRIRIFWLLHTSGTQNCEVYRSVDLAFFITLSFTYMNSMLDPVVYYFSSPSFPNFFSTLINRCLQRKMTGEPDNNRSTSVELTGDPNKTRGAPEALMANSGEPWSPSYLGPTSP
(cAMP levels reflect the balance of adenylyl cyclase and phosphodiesterase activity.)

The target of experiment [3] is T1, human HM74a. Description: GTPγS recruitment assay. It counts as biochemical. Set-up: expressed in transfected cells; host or cells: HEK293 (transient transfection; membranes). Particulars: membranes of HEK293 cells transfected with human HM74a and Gα0; 35S GTPγS. The protocol: Membranes were prepared from HEK293 cells transiently transfected with human HM74a and Gα0 protein. Assays were performed in 384-well format in a volume of 50 μL per assay point. Serial dilutions of compounds were prepared in the assay buffer (20 mM HEPES pH. 7.4, 100 mM NaCl, 10 mM MgCl2, 10 mg/L saponin and 10 μM GDP) and mixed with membranes (2 μg per assay point) and ^35S GTPγS (Amersham, 0.3 nM) in the assay buffer. The mixtures were incubated at room temperature for 30 mM and wheat germ agglutinin SPA beads (Amersham) (0.2 mg per assay point) in the assay buffer were added. After […] incubation with agitation, plates were centrifuged at 1500 g for 5 mM and bound ^35S GTPγS was determined by counting on a TopCount scintillation counter. […] For example, the compound of Example 1 has an EC50 of 80 nM in this assay.
In general terms: GTPγS resists hydrolysis and so accumulates on activated G proteins.

With `CCCCCn1c2nc(Br)[nH]c2c(=O)n2c(CCc3nc(Cc4ccncc4)no3)nnc12` [Example 77, 7-bromo-9-pentyl-3-{2-[3-(pyridine-4-ylmethyl)-1,2,4-oxadiazol-5-yl]ethyl}-6,9-dihydro-5H-[1,2,4]triazolo[4,3-a]purin-5-one], the IC50 (as a rule, the concentration that gives 50% inhibition) in the experiment on mature adipocytes was 37 nM.

On to `O=C1[C@H](CC[C@H](O)c2ccc(F)cc2)[C@@H](c2ccc(O)cc2)N1c1ccc(F)cc1` [Ezetimibe], for which, in experiment [1] (co-formulated with a statin), the “maximal LDL reductions” value is given as “exceed 60%”. Also, the “lowers LDL” value in experiment [1] (monotherapy) is on record as 20%.

In the case of `O=C(O)c1cccnc1` [Nicotinic acid, nicotinic acid], in experiment [1] (human, in vivo), the “lowering circulating plasma LDL” value is 16%, the lowering triglycerides was 38% and the “raising HDL levels” value is listed as 20-30%.

Take `CCCCCn1c2nc(C(F)(F)F)[nH]c2c(=O)n2c(C)nnc12` [Example 1, 3-methyl-9-pentyl-7-(trifluoromethyl)-6,9-dihydro-5H-[1,2,4]triazolo[4,3-a]purin-5-one]: the IC50 at human HM74a [2] worked out at 20 nM. Moreover, the EC50 (as a rule, the concentration at which the effect is half-maximal) on human HM74a [3] is 80 nM.
